Laboratory results published in patent US9440956B2, “Indole, indazole and benzimidazole arylamides as P2X3 and P2X2/3 antagonists” (Roche Palo Alto LLC, priority 2010, dated 2016).

Legend:
rat P2X3 receptor = target: T1, rat P2X3 receptor (Rattus norvegicus, UniProt P49654); assay: P2X3 FLIPR (Fluorometric Imaging Plate Reader) assay; format: cell-based; settings: CHO-K1 cells transfected with cloned rat P2X3; agonist α,β-meATP 1 μM; Fluo-3 calcium fluorescence
T1 construct: expressed in transfected cells; host or cells: CHO-K1
T1 sequence (P49654 1-397): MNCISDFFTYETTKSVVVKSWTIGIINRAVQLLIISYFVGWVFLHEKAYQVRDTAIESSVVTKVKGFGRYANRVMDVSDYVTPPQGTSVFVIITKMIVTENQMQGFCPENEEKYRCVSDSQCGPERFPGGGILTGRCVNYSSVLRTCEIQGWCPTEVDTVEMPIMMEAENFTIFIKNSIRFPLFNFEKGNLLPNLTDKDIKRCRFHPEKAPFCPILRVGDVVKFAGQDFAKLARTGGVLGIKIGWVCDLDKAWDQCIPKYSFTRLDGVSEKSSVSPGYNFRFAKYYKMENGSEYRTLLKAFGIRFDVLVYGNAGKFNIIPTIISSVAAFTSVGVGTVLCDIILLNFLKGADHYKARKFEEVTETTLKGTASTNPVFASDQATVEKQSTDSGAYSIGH
Protocol: (§1) P2X3/P2X2/3 FLIPR (Fluorometric Imaging Plate Reader) Assay
(§2) CHO-K1 cells were transfected with cloned rat P2X3 or human P2X2/3 receptor subunits and passaged in flasks. 18-24 hours before the FLIPR experiment, cells were released from their flasks, centrifuged, and resuspended in nutrient medium at 2.5×10^5 cells/ml. The cells were aliquoted into black-walled 96-well plates at a density of 50,000 cells/well and incubated overnight in 5% CO2 at 37° C. On the day of the experiment, cells were washed in FLIPR buffer (calcium- and magnesium-free Hank's balanced salt solution, 10 mM HEPES, 2 mM CaCl2, 2.5 mM probenecid; FB). Each well received 100 μl FB and 100 μl of the fluorescent dye Fluo-3 AM [2 μM final conc.]. After a 1 hour dye loading incubation at 37° C., the cells were washed 4 times with FB, and a final 75 μl/well FB was left in each well.
(§3) Test compounds (dissolved in DMSO at 10 mM and serially diluted with FB) or vehicle were added to each well (25 μl of a 4× solution) and allowed to equilibrate for 20 minutes at room temperature. The plates were then placed in the FLIPR and a baseline fluorescence measurement (excitation at 488 nm and emission at 510-570 nm) was obtained for 10 seconds before a 100 μl/well agonist or vehicle addition. The agonist was a 2× solution of α,β-meATP producing a final concentration of 1 μM (P2X3) or 5 μM (P2X2/3). Fluorescence was measured for an additional 2 minutes at 1 second intervals after agonist addition. A final addition of ionomycin (5 μM, final concentration) was made to each well of the FLIPR test plate to establish cell viability and maximum fluorescence of dye-bound cytosolic calcium. Peak fluorescence in response to the addition of α,β-meATP (in the absence and presence of test compounds) was measured and inhibition curves generated using nonlinear regression. PPADS, a standard P2X antagonist, was used as a positive control.

human P2X2/3 receptor = target: T2, human P2X2/3 receptor (Homo sapiens, UniProt P56373+Q9UBL9); assay: P2X2/3 FLIPR (Fluorometric Imaging Plate Reader) assay; format: cell-based; settings: CHO-K1 cells transfected with human P2X2/3; agonist α,β-meATP 5 μM; Fluo-3 calcium fluorescence
T2 construct: expressed in transfected cells; host or cells: CHO-K1
T2 sequence (Q9UBL9 1-471): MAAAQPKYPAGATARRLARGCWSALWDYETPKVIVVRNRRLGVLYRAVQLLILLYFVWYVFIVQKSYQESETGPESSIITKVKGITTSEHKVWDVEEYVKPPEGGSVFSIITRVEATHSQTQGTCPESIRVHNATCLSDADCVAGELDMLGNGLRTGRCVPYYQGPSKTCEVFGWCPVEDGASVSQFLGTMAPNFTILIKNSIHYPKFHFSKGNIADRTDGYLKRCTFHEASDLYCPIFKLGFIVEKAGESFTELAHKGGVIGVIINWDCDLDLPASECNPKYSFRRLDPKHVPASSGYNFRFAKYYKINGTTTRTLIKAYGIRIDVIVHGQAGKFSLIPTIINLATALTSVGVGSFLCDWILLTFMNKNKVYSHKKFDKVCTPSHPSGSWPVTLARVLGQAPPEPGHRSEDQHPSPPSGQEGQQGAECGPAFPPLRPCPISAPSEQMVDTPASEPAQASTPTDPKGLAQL
T2 sequence (P56373 1-397): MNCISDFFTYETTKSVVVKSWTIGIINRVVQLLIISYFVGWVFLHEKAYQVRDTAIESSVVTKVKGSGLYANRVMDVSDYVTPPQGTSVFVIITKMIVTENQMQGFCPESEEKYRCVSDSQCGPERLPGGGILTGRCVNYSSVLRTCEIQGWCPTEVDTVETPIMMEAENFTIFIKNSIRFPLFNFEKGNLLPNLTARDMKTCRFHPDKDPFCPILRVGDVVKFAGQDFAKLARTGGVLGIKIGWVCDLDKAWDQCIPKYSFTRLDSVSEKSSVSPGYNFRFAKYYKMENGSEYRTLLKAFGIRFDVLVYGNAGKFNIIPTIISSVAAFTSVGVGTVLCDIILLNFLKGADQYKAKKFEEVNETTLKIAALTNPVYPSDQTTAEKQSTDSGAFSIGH
Protocol: as §1, §2, §3

| SMILES | pKi P2X3 (rat P2X3 receptor) | pKi P2X2/3 (human P2X2/3 receptor) |
| --- | --- | --- |
| Cc1ccc(-c2cc(C(=O)NCc3cnc(C)cn3)cc3c2cnn3-c2ccccc2C)nc1 [Compound 18, 4-(5-Methyl-pyridin-2-yl)-1-o-tolyl-1H-indazole-6-carboxylic acid (5-methyl-pyrazin-2-ylmethyl)-amide] | 8.01 | 7.26 |
| Cc1ccc(-c2cc(C(=O)N[C@@H](C)CO)cc3c2cnn3-c2ccccc2C)nc1 [Compound 19, 4-(5-Methyl-1-pyridin-2-yl)-1-o-tolyl-1H-indazole-6-carboxylic acid ((S)-2-hydroxy-1-methyl-ethyl)-amide] | 7.98 | 6 |
| Cc1ccc(-c2cc(C(=O)NCc3cnc(C)cn3)cc3c2ccn3CC(C)C)nc1 [Compound 21, 1-Isobutyl-4-(5-methyl-pyridin-2-yl)-1H-indole-6-carboxylic acid (5-methyl-pyrazin-2-ylmethyl)-amide] | 7.17 | 5.92 |

Results, then the compound that gave them:

| pKi P2X3 (rat P2X3 receptor) | pKi P2X2/3 (human P2X2/3 receptor) | SMILES |
| --- | --- | --- |
| 7.55 | 6.19 | Cc1ccc(-c2cc(C(=O)N[C@@H](C)CO)cc3c2cnn3-c2ccccc2C(C)C)nc1 [Compound 20, 1-(2-Isopropyl-phenyl)-4-(5-methyl-pyridin-2-yl)-1H-indazole-6-carboxylic acid ((S)-2-hydroxy-1-methyl-ethyl)-amide] |
| 7.27 | 5.32 | Cc1ccc(-c2cc(C(=O)NCc3ccc(C)nn3)cc3c2ccn3C(C)C)nc1 [Compound 25, 1-Isopropyl-4-(5-methyl-pyridin-2-yl)-1H-indole-6-carboxylic acid (6-methyl-pyridazin-3-ylmethyl)-amide] |
